Results published in ChEMBL document CHEMBL1201862, “PubChem BioAssay data set” (2004).
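These data come from cells grown in 96-well plates and exposed to compound for 48 hours at five concentrations. GI50 marks 50% less growth.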 Active and inactive are the calls of the source. Cut-off read from the data, not from the text of the source: active = GI50 up to about 1.1 µM and inactive = higher.

What was measured:
Assay in all cases: DTP human tumour cell line panel, 48 h
[1] = system: U-251
[2] = system: NCI/ADR-RES
[3] = system: SNB-19
[4] = system: Malme-3M
[5] = system: A498
[6] = system: SK-MEL-2
[7] = system: BT-549
[8] = system: SF-539
[9] = system: HCT-116
[10] = system: SK-OV-3
[11] = system: SK-MEL-5
[12] = system: UO-31
[13] = system: KM12
[14] = system: M14
[15] = system: HCT-15
[16] = system: HCC 2998
[17] = system: UACC-257
[18] = system: IGROV-1
[19] = system: SK-MEL-28
[20] = system: NCI-H460
[21] = system: COLO 205
[22] = system: SF-295
[23] = system: LOX IMVI
[24] = system: MCF7
[25] = system: 786-0
[26] = system: RPMI-8226
[27] = system: A549
[28] = system: PC-3
[29] = system: OVCAR-4
[30] = system: SF-268
[31] = system: OVCAR-5
[32] = system: OVCAR-8
[33] = system: CAKI-1
[34] = system: EKVX
[35] = system: MDA-MB-231
[36] = system: DU-145
[37] = system: CCRF-CEM
[38] = system: HOP-92
[39] = system: MOLT-4
[40] = system: HT-29
[41] = system: SNB-75
[42] = system: TK-10
[43] = system: MDA-MB-435
[44] = system: NCI-H522
[45] = system: OVCAR-3
[46] = system: SN12C
[47] = system: Hs-578T
[48] = system: NCI-H23
[49] = system: SW-620
[50] = system: UACC-62
[51] = system: T47D
[52] = system: HL-60
[53] = system: MDA-N
[54] = system: ACHN
[55] = system: NCI-H226
[56] = system: HOP-62
[57] = system: RXF 393
[58] = system: K562

Q: `COC(C)C(O)(C(=O)OCC1=CCN2CCC(O)C12)C(C)(C)O` (stereo not given) was tested. Which GI50 [1] did it give?
A: > 100 µM (inactive)

Q: And the GI50 [2]?
A: > 100 µM (inactive)

Q: And the GI50 [3]?
A: > 100 µM (inactive)

Q: And the GI50 [4]?
A: > 100 µM (inactive)

Q: What about the GI50 [5] of the same molecule?
A: > 100 µM (inactive)

Q: And the GI50 [6]?
A: > 100 µM (inactive)

Q: What about the GI50 [7] of the same molecule?
A: > 100 µM (inactive)

Q: What about the GI50 [8] of the same molecule?
A: > 100 µM (inactive)

Q: And the GI50 [9]?
A: > 100 µM (inactive)

Q: What about the GI50 [10] of the same molecule?
A: > 100 µM (inactive)

Q: What about the GI50 [11] of the same molecule?
A: > 100 µM (inactive)

Q: And the GI50 [12]?
A: > 100 µM (inactive)

Q: What about the GI50 [13] of the same molecule?
A: > 100 µM (inactive)

Q: What about the GI50 [14] of the same molecule?
A: > 100 µM (inactive)

Q: What about the GI50 [15] of the same molecule?
A: > 100 µM

Q: And the GI50 [16]?
A: > 100 µM (inactive)

Q: What about the GI50 [17] of the same molecule?
A: > 100 µM (inactive)

Q: What about the GI50 [18] of the same molecule?
A: > 100 µM (inactive)

Q: And the GI50 [19]?
A: > 100 µM (inactive)

Q: What about the GI50 [20] of the same molecule?
A: > 100 µM (inactive)

Q: And the GI50 [21]?
A: > 100 µM (inactive)

Q: What about the GI50 [22] of the same molecule?
A: > 100 µM (inactive)

Q: What about the GI50 [23] of the same molecule?
A: > 100 µM (inactive)

Q: And the GI50 [24]?
A: > 100 µM (inactive)

Q: What about the GI50 [25] of the same molecule?
A: > 100 µM (inactive)

Q: What about the GI50 [26] of the same molecule?
A: > 100 µM (inactive)

Q: What about the GI50 [27] of the same molecule?
A: > 100 µM (inactive)

Q: And the GI50 [28]?
A: > 100 µM (inactive)

Q: What about the GI50 [29] of the same molecule?
A: > 100 µM (inactive)

Q: And the GI50 [30]?
A: > 100 µM (inactive)

Q: And the GI50 [31]?
A: > 100 µM (inactive)

Q: What about the GI50 [32] of the same molecule?
A: > 100 µM (inactive)

Q: And the GI50 [33]?
A: > 100 µM (inactive)

Q: And the GI50 [34]?
A: > 100 µM (inactive)

Q: What about the GI50 [35] of the same molecule?
A: > 100 µM (inactive)

Q: And the GI50 [36]?
A: > 100 µM (inactive)

Q: What about the GI50 [37] of the same molecule?
A: > 100 µM (inactive)

Q: What about the GI50 [38] of the same molecule?
A: > 100 µM (inactive)

Q: What about the GI50 [39] of the same molecule?
A: > 100 µM (inactive)

Q: And the GI50 [40]?
A: > 100 µM (inactive)

Q: What about the GI50 [41] of the same molecule?
A: > 100 µM (inactive)

Q: What about the GI50 [42] of the same molecule?
A: > 100 µM (inactive)

Q: And the GI50 [43]?
A: > 100 µM (inactive)

Q: And the GI50 [44]?
A: > 100 µM (inactive)

Q: And the GI50 [45]?
A: > 100 µM (inactive)

Q: And the GI50 [46]?
A: > 100 µM (inactive)

Q: And the GI50 [47]?
A: > 100 µM (inactive)

Q: And the GI50 [48]?
A: > 100 µM (inactive)

Q: What about the GI50 [49] of the same molecule?
A: > 100 µM (inactive)

Q: What about the GI50 [50] of the same molecule?
A: > 100 µM (inactive)

Q: And the GI50 [51]?
A: > 100 µM (inactive)

Q: What about the GI50 [52] of the same molecule?
A: > 100 µM (inactive)

Q: And the GI50 [53]?
A: > 100 µM (inactive)

Q: What about the GI50 [54] of the same molecule?
A: > 100 µM (inactive)

Q: And the GI50 [55]?
A: > 100 µM (inactive)

Q: How did the GI50 [1] turn out when `O=c1[nH]nc(Cc2c[nH]c3ccccc23)o1` was run?
A: > 100 µM (inactive)

Q: And the GI50 [2]?
A: > 100 µM (inactive)

Q: And the GI50 [3]?
A: > 100 µM (inactive)

Q: And the GI50 [4]?
A: > 100 µM (inactive)

Q: What about the GI50 [5] of the same molecule?
A: > 100 µM (inactive)

Q: And the GI50 [6]?
A: > 100 µM (inactive)

Q: And the GI50 [7]?
A: > 100 µM (inactive)

Q: And the GI50 [8]?
A: > 100 µM (inactive)

Q: What about the GI50 [9] of the same molecule?
A: > 100 µM (inactive)

Q: What about the GI50 [11] of the same molecule?
A: > 100 µM (inactive)

Q: What about the GI50 [12] of the same molecule?
A: > 100 µM (inactive)

Q: What about the GI50 [13] of the same molecule?
A: > 100 µM (inactive)

Q: What about the GI50 [14] of the same molecule?
A: > 100 µM (inactive)

Q: What about the GI50 [15] of the same molecule?
A: > 100 µM

Q: And the GI50 [56]?
A: > 100 µM (inactive)

Q: What about the GI50 [16] of the same molecule?
A: > 100 µM (inactive)

Q: And the GI50 [17]?
A: > 100 µM (inactive)

Q: And the GI50 [18]?
A: > 100 µM (inactive)

Q: What about the GI50 [19] of the same molecule?
A: > 100 µM (inactive)

Q: What about the GI50 [21] of the same molecule?
A: > 100 µM (inactive)

Q: And the GI50 [22]?
A: > 100 µM (inactive)

Q: What about the GI50 [23] of the same molecule?
A: > 100 µM (inactive)

Q: What about the GI50 [24] of the same molecule?
A: > 100 µM (inactive)

Q: What about the GI50 [25] of the same molecule?
A: > 100 µM (inactive)

Q: What about the GI50 [57] of the same molecule?
A: > 100 µM (inactive)

Q: What about the GI50 [26] of the same molecule?
A: > 100 µM (inactive)

Q: And the GI50 [27]?
A: > 100 µM (inactive)

Q: And the GI50 [28]?
A: > 100 µM (inactive)

Q: And the GI50 [29]?
A: > 100 µM (inactive)

Q: What about the GI50 [30] of the same molecule?
A: > 100 µM (inactive)

Q: What about the GI50 [31] of the same molecule?
A: > 100 µM (inactive)

Q: What about the GI50 [32] of the same molecule?
A: > 100 µM (inactive)

Q: What about the GI50 [33] of the same molecule?
A: > 100 µM (inactive)

Q: And the GI50 [34]?
A: > 100 µM (inactive)

Q: And the GI50 [35]?
A: > 100 µM (inactive)

Q: What about the GI50 [36] of the same molecule?
A: > 100 µM (inactive)

Q: And the GI50 [37]?
A: > 100 µM (inactive)

Q: What about the GI50 [38] of the same molecule?
A: > 100 µM (inactive)

Q: What about the GI50 [39] of the same molecule?
A: > 100 µM (inactive)

Q: What about the GI50 [40] of the same molecule?
A: > 100 µM (inactive)

Q: What about the GI50 [42] of the same molecule?
A: > 100 µM (inactive)

Q: What about the GI50 [43] of the same molecule?
A: > 100 µM (inactive)

Q: What about the GI50 [58] of the same molecule?
A: > 100 µM (inactive)

Q: And the GI50 [44]?
A: > 100 µM (inactive)

Q: What about the GI50 [45] of the same molecule?
A: > 100 µM (inactive)

Q: What about the GI50 [46] of the same molecule?
A: > 100 µM (inactive)

Q: And the GI50 [47]?
A: > 100 µM (inactive)

Q: And the GI50 [48]?
A: > 100 µM (inactive)

Q: What about the GI50 [49] of the same molecule?
A: > 100 µM (inactive)

Q: What about the GI50 [50] of the same molecule?
A: > 100 µM (inactive)

Q: What about the GI50 [51] of the same molecule?
A: > 100 µM (inactive)

Q: What about the GI50 [52] of the same molecule?
A: > 100 µM (inactive)

Q: What about the GI50 [53] of the same molecule?
A: > 100 µM (inactive)

Q: What about the GI50 [54] of the same molecule?
A: > 100 µM (inactive)

Q: And the GI50 [55]?
A: > 100 µM (inactive)
